According to ChEMBL document CHEMBL1143549, “Novel 4-amino-furo[2,3-d]pyrimidines as Tie-2 and VEGFR2 dual inhibitors” (Bioorg Med Chem Lett, 2005):
pIC50: −log10 of the molar value.

Tests used:
Angiopoietin-1 receptor [1] = target: T1, Angiopoietin-1 receptor (Homo sapiens, UniProt Q02763); test: Inhibitory concentration against human tyrosine protein kinase receptor TIE-2
[2] = target: Vascular endothelial growth factor receptor 2 (Homo sapiens, UniProt P35968); test: Inhibitory concentration against human vascular endothelial growth factor receptor 2
Chain of Vascular endothelial growth factor receptor 2 (P35968 whole entry): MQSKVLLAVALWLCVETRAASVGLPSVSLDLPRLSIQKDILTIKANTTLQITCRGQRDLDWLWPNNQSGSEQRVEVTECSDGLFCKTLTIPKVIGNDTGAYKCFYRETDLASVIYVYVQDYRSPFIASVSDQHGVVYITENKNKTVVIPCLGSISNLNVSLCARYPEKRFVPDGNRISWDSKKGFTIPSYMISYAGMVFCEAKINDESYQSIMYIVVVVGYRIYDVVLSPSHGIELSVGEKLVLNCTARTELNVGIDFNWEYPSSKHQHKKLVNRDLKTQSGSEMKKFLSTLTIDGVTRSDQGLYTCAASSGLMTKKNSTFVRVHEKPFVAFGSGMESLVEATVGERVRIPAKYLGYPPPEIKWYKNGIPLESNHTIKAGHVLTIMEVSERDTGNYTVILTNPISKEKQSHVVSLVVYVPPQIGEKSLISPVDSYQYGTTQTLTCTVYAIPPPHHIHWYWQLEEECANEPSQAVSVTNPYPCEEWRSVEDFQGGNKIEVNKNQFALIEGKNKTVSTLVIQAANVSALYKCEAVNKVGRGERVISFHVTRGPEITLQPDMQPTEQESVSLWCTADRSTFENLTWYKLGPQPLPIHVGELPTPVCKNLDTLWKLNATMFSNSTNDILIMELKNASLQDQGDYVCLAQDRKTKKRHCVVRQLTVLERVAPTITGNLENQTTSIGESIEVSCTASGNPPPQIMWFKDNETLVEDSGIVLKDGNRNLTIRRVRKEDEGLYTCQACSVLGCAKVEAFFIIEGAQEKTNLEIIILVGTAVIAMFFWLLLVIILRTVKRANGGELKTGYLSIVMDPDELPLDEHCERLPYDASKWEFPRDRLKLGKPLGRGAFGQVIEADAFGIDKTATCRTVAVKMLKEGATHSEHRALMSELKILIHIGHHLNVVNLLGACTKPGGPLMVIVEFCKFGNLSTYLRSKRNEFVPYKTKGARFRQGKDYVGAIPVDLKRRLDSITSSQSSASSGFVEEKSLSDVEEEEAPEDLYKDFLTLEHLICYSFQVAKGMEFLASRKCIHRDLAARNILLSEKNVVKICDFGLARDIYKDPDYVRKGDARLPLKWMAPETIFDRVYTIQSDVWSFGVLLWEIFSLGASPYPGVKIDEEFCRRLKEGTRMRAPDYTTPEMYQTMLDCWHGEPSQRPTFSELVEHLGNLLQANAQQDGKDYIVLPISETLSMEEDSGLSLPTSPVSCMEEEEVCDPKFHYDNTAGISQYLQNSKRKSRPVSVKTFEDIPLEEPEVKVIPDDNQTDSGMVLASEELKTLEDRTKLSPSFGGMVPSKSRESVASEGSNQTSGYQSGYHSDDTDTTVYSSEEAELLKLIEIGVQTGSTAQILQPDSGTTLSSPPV

Angiopoietin-1 receptor [3] = target: T1, Angiopoietin-1 receptor; test: Concentration required to inhibit autophosphorylation of tyrosine protein kinase receptor TIE-2 transfected in 3T3 cells; type: functional, cell-based, NIH3T3
HUVEC = test: Concentration required for growth inhibition of human umbilical vein endothelial cells stimulated by VEGF; type: functional, cell-based
HFF = test: Cytotoxic concentration against HFF cells was determined; type: functional, cell-based; conditions: Homo sapiens

T1 sequence (Q02763 whole entry): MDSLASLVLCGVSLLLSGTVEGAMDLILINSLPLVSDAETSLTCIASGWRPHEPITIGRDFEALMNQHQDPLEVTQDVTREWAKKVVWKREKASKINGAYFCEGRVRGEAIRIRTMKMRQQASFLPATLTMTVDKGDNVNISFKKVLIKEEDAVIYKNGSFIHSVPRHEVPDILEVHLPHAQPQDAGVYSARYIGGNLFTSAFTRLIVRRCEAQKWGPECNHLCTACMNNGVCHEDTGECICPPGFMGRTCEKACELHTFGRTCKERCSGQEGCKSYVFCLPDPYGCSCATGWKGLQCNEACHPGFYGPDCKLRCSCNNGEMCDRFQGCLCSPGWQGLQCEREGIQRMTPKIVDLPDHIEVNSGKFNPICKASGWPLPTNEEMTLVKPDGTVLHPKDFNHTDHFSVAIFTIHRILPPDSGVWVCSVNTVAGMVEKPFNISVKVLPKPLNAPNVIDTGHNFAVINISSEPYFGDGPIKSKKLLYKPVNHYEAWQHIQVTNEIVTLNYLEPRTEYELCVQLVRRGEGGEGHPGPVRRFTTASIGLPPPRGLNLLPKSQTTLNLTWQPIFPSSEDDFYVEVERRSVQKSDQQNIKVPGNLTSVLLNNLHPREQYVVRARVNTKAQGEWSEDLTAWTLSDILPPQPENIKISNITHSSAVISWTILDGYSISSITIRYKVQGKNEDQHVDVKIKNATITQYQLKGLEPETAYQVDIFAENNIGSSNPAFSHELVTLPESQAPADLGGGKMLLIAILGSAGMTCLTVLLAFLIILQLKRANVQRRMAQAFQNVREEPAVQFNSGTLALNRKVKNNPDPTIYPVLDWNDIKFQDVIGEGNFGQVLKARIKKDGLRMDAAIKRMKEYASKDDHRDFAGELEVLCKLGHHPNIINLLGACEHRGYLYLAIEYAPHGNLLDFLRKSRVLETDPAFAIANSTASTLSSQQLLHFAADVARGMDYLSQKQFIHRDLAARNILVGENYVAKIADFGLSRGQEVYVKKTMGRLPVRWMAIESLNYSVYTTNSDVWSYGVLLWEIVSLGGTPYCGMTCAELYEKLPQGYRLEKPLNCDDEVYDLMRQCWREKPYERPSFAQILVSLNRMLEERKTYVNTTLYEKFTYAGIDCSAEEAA

Structure (SMILES) | pIC50 (Angiopoietin-1 receptor [1]) | pIC50 [2] | pIC50 (Angiopoietin-1 receptor [3]) | pIC50 (HUVEC) | pIC50 (HFF)
COc1ccc(-c2cc3c(N)ncnc3o2)cc1 [GW642138X] | < 4.70 | < 4.77 |  |  | 
COc1ccc(-c2c(-c3ccc(Cl)c(Cl)c3)oc3ncnc(N)c23)cc1 |  | < 4.70 |  |  | 
COc1ccc(-c2oc3ncnc(N)c3c2-c2ccc(OC)cc2)cc1 | 6.00 | 5.95 |  |  | 
COc1ccc(-c2oc3ncnc(N)c3c2-c2ccc(NC(=O)Nc3cc(C(F)(F)F)ccc3F)cc2)cc1 | 8.70 | 8.52 | 8.20 | 7.35 | 6.10
COc1ccc(-c2coc3ncnc(N)c23)cc1 [GW642125X] | < 4.70 | 5.26 |  |  | 
COc1ccc(-c2oc3ncnc(N)c3c2-c2cccc(NC(C)=O)c2)cc1 | < 4.70 |  |  |  | 
